# Data taken from US10363239B2, “Method for inhibiting growth of cancer cells” (Pain Therapeutics, Inc., priority 2013, dated 2019).
# Like-named read-outs stand apart in the source and are kept apart here.
# Key:
# mu opiate receptor (MOR) = assay: MOR agonist activity using [35S]GTPγS binding assay in striatal membranes; format: biochemical; conditions: for MOR agonist activity ([35S]GTPγS binding), FLNA-Binding Compound as Agonist 1 μM + BFNA: 1 μM compound + 1 μM β-funaltrexamine
# Outline: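 Striatal membranes (200 μg) were preincubated 5 min at 30 °C in HEPES pH 7.5 with 100 mM NaCl, 1 mM MgCl2 and 0.5 nM [35S]GTPγS, then 5 min more with 0.1–10 μM compound. Gαo was immunoprecipitated and bound radioactivity counted by scintillation.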
# [1] = biological target: FLNA pentapeptide of SEQ ID NO: 1 (Bn-VAKGL) (Homo sapiens, UniProt P21333); assay: FITC-NLX-based FLNA screening assay (inhibition of FITC-naloxone binding to Bn-VAKGL on streptavidin plates); conditions: for inhibition at 0.01 µM / inhibition at 0.1 µM / inhibition at 1 µM: 10 nM FITC-NLX
# [2] = Series C-1, 0.1 μM compound, relative to DAMGO
# [3] = Series C-1, 0.1 μM compound, [35S]GTPγS binding to Gαo, striatal membranes
# [4] = Series C-1, 1 μM compound + 1 μM β-FNA
# [5] = Series C-1, 1 μM compound + β-FNA, relative to DAMGO + BFNA
# [6] = Series C-1, 1 μM compound, relative to DAMGO
# [7] = Series C-1, 1 μM compound, [35S]GTPγS binding to Gαo, striatal membranes
# [8] = read-out: Percent Binding Inhibition, FLNA-binding compound 0.01 μM
# [9] = read-out: Percent Binding Inhibition, FLNA-binding compound 0.1 μM
# [10] = read-out: Percent Binding Inhibition, FLNA-binding compound 1 μM
# [11] = Series B, 0.1 μM compound, relative to DAMGO
# [12] = Series B, 0.1 μM compound, [35S]GTPγS binding to Gαo, striatal membranes
# [13] = Series B, 1 μM compound + 1 μM β-FNA
# [14] = Series B, 1 μM compound + β-FNA, relative to DAMGO + BFNA
# [15] = Series B, 1 μM compound, relative to DAMGO
# [16] = Series B, 1 μM compound, [35S]GTPγS binding to Gαo, striatal membranes
# [17] = 0.1 μM compound relative to DAMGO
# [18] = 1 μM compound + BFNA relative to DAMGO + BFNA
# [19] = 1 μM compound relative to DAMGO
# [20] = FLNA-binding compound 0.01 μM, read-out: Percent Binding Inhibition
# [21] = FLNA-binding compound 0.1 μM, read-out: Percent Binding Inhibition
# [22] = FLNA-binding compound 1 μM, read-out: Percent Binding Inhibition
structure (smiles),measurement,setting,value
Cc1ccc(S(=O)(=O)N2CCOC23CCN(CC2CCC2)CC3)cc1 [Compound 9],"MOR agonist activity, FLNA-Binding Compound as Agonist 0.1 μM (preliminary study)","mu opiate receptor (MOR); 0.1 μM, average of two runs",156.6%
same,"MOR agonist activity, FLNA-Binding Compound as Agonist 1 μM + βNFA (preliminary study)","mu opiate receptor (MOR); 1 μM + βNFA, average of two runs",56.6%
same,"MOR agonist activity, FLNA-Binding Compound as Agonist 1 μM (preliminary study)","mu opiate receptor (MOR); 1 μM, average of two runs",197.2%
same,MOR agonist activity (conclusion in words),mu opiate receptor (MOR); preliminary study,MOR agonists
same,Binding to FLNA (conclusion in words),[1]; preliminary study,bind well to FLNA
CC(=O)c1ccc(C(=O)N2CCC3(CC2)OCCN3S(=O)(=O)c2ccc(C(C)=O)cc2)cc1 [Compound C0052],% DAMGO (0.1 μM),mu opiate receptor (MOR); [2],74.8%
same,Concentration of FLNA-Binding Compound as Agonist 0.1 μM,mu opiate receptor (MOR); [3],108.4%
same,Concentration of FLNA-Binding Compound as Agonist 1 μM + BFNA,mu opiate receptor (MOR); [4],42.7%
same,% DAMGO + BFNA,mu opiate receptor (MOR); [5],97.0%
same,% DAMGO (1 μM),mu opiate receptor (MOR); [6],69.9%
same,Concentration of FLNA-Binding Compound as Agonist 1 μM,mu opiate receptor (MOR); [7],162.8%
same,inhibition at 0.01 µM,[1]; [8],28%
same,inhibition at 0.1 µM,[1]; [9],35.6%
same,inhibition at 1 µM,[1]; [10],40.8%
O=S(=O)(c1ccc(-c2ccccc2)cc1)N1CCC2(CC1)OCCN2S(=O)(=O)c1ccc(-c2ccccc2)cc1 [Compound C0010],% DAMGO (0.1 μM),mu opiate receptor (MOR); [2],80.7%
same,Concentration of FLNA-Binding Compound as Agonist 0.1 μM,mu opiate receptor (MOR); [3],136.5%
same,Concentration of FLNA-Binding Compound as Agonist 1 μM + BFNA,mu opiate receptor (MOR); [4],89.1%
same,% DAMGO + BFNA,mu opiate receptor (MOR); [5],135.0%
same,% DAMGO (1 μM),mu opiate receptor (MOR); [6],114.9%
same,Concentration of FLNA-Binding Compound as Agonist 1 μM,mu opiate receptor (MOR); [7],307.0%
same,inhibition at 0.01 µM,[1]; [8],39.8%
same,inhibition at 0.1 µM,[1]; [9],42.7%
same,inhibition at 1 µM,[1]; [10],47.1%
COc1cc(OC)cc(C(=O)CC2c3c(cc4c(c3OC)OCO4)CC[N+]2(C)C)c1 (centres unmarked) [Compound B0035],% DAMGO (0.1 μM),mu opiate receptor (MOR); [11],109.8%
same,"MOR agonist activity, percent [35S]GTPγS binding at the stated compound concentration",mu opiate receptor (MOR); [12],188.0%
same,"MOR agonist activity, percent [35S]GTPγS binding at the stated compound concentration",mu opiate receptor (MOR); [13],74.2%
same,% DAMGO + BFNA,mu opiate receptor (MOR); [14],142.4%
same,% DAMGO (1 μM),mu opiate receptor (MOR); [15],93.2%
same,"MOR agonist activity, percent [35S]GTPγS binding at the stated compound concentration",mu opiate receptor (MOR); [16],248.7%
same,inhibition at 0.01 µM,[1]; [8],45.4%
same,inhibition at 0.1 µM,[1]; [9],44.7%
same,inhibition at 1 µM,[1]; [10],51%
COc1cccc(CC(=O)CC2c3c(cc4c(c3OC)OCO4)CC[N+]2(C)C)c1OC (centres unmarked) [Compound B0038],% DAMGO (0.1 μM),mu opiate receptor (MOR); [11],94.2%
same,"MOR agonist activity, percent [35S]GTPγS binding at the stated compound concentration",mu opiate receptor (MOR); [12],147.5%
same,"MOR agonist activity, percent [35S]GTPγS binding at the stated compound concentration",mu opiate receptor (MOR); [13],117.1%
same,% DAMGO + BFNA,mu opiate receptor (MOR); [14],359.2%
same,% DAMGO (1 μM),mu opiate receptor (MOR); [15],88.7%
same,"MOR agonist activity, percent [35S]GTPγS binding at the stated compound concentration",mu opiate receptor (MOR); [16],205.3%
same,inhibition at 0.01 µM,[1]; [8],41.2%
same,inhibition at 0.1 µM,[1]; [9],50.1%
same,inhibition at 1 µM,[1]; [10],57%
CC1CCC(C(C)C)C(OCC(O)Cn2ccc3ccccc32)C1 (centres unmarked) [Compound A0078],"MOR agonist activity ([35S]GTPγS binding), FLNA-Binding Compound as Agonist 0.1 μM",mu opiate receptor (MOR); 0.1 μM compound,250.5%
same,% DAMGO (0.1 μM),mu opiate receptor (MOR); [17],124.9%
same,"MOR agonist activity ([35S]GTPγS binding), FLNA-Binding Compound as Agonist 1 μM",mu opiate receptor (MOR); 1 μM compound,289.9%
same,"MOR agonist activity ([35S]GTPγS binding), FLNA-Binding Compound as Agonist 1 μM + BFNA",mu opiate receptor (MOR),147.8%
same,% DAMGO + BFNA,mu opiate receptor (MOR); [18],274.2%
same,% DAMGO (1 μM),mu opiate receptor (MOR); [19],92.3%
same,inhibition at 0.01 µM,[1]; [8],50.1%
same,inhibition at 0.1 µM,[1]; [9],55.8%
same,inhibition at 1 µM,[1]; [10],57.6%
COc1c2c(cc3c1OCO3)CCN(CC(O)COC1CC(C)CCC1C(C)C)C2 (centres unmarked) [Compound A0061],"MOR agonist activity ([35S]GTPγS binding), FLNA-Binding Compound as Agonist 0.1 μM",mu opiate receptor (MOR); 0.1 μM compound,110.3%
same,% DAMGO (0.1 μM),mu opiate receptor (MOR); [17],70.7%
same,"MOR agonist activity ([35S]GTPγS binding), FLNA-Binding Compound as Agonist 1 μM",mu opiate receptor (MOR); 1 μM compound,197.1%
same,"MOR agonist activity ([35S]GTPγS binding), FLNA-Binding Compound as Agonist 1 μM + BFNA",mu opiate receptor (MOR),10.7%
same,% DAMGO + BFNA,mu opiate receptor (MOR); [18],26.8%
same,% DAMGO (1 μM),mu opiate receptor (MOR); [19],85.5%
same,inhibition at 0.01 µM,[1]; [20],27.5%
same,inhibition at 0.1 µM,[1]; [21],38.9%
same,inhibition at 1 µM,[1]; [22],42.8%
CCCCN1CCC2(CC1)OCCN2S(=O)(=O)c1ccc(C(C)=O)cc1 [Compound C0101M],% DAMGO (0.1 μM),"mu opiate receptor (MOR); Series C-2, 0.1 μM compound, relative to DAMGO",82.5%
same,"MOR agonist activity, percent [35S]GTPγS binding at the stated compound concentration","mu opiate receptor (MOR); Series C-2, 0.1 μM compound, [35S]GTPγS binding to Gαo, striatal membranes",138.2%
same,"MOR agonist activity, percent [35S]GTPγS binding at the stated compound concentration","mu opiate receptor (MOR); Series C-2, 1 μM compound + 1 μM β-FNA",174.8%
same,% DAMGO + BFNA,"mu opiate receptor (MOR); Series C-2, 1 μM compound + β-FNA, relative to DAMGO + BFNA",368.0%
same,% DAMGO (1 μM),"mu opiate receptor (MOR); Series C-2, 1 μM compound, relative to DAMGO",123.4%
same,"MOR agonist activity, percent [35S]GTPγS binding at the stated compound concentration","mu opiate receptor (MOR); Series C-2, 1 μM compound, [35S]GTPγS binding to Gαo, striatal membranes",274.3%
same,inhibition at 0.01 µM,[1]; [20],50.5%
same,inhibition at 0.1 µM,[1]; [21],56.4%
same,inhibition at 1 µM,[1]; [22],59%
